Holding throughout (format): biochemical
Assay [1] addresses T1, 320 wild-type protein kinases (Homo sapiens, UniProt Q14164).
T1 sequence (Q14164 1-716): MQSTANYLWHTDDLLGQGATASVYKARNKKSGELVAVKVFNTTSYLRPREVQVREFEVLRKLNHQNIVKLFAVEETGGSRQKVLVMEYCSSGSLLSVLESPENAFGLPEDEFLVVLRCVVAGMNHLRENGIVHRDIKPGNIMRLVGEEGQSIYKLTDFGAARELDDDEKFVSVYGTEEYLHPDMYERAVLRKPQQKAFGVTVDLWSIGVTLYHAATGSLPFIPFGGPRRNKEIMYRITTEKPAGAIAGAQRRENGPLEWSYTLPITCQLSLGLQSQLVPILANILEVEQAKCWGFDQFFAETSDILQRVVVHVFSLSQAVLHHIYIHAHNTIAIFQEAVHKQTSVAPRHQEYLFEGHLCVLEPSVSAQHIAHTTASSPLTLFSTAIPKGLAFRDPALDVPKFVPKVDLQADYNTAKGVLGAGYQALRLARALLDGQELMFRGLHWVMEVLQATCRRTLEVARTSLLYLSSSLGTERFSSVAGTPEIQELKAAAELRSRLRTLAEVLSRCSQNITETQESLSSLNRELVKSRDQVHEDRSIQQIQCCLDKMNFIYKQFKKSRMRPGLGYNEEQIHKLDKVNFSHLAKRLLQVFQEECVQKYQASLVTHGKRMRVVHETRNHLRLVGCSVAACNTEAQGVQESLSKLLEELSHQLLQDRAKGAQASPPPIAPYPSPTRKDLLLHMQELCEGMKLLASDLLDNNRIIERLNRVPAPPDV
Conditions: IKK-epsilon, singlicate. From the text: (§1) Table S4. Profiling of two compounds at two concentrations against 320 wild-type protein kinases; singlicate measurement; Residual activities (% of control).

Assay [2] concerns the target 320 wild-type protein kinases (Homo sapiens, UniProt Q5VT25). Conditions: CDC42BPA, singlicate.
Excerpt: as §1

The target in assay [3] is 320 wild-type protein kinases (Homo sapiens, UniProt P04049, Y340D/Y341D). Conditions: kinase RAF1 Y340D/Y341D (untagged), singlicate.
Excerpt: as §1

For assay [4], the target named is 320 wild-type protein kinases (Homo sapiens, UniProt P43405). Conditions: kinase SYK aa1-635, singlicate.
Excerpt: as §1

For assay [5], the target named is T2, 320 wild-type protein kinases (Homo sapiens, UniProt Q99759).
T2 sequence (Q99759 1-626): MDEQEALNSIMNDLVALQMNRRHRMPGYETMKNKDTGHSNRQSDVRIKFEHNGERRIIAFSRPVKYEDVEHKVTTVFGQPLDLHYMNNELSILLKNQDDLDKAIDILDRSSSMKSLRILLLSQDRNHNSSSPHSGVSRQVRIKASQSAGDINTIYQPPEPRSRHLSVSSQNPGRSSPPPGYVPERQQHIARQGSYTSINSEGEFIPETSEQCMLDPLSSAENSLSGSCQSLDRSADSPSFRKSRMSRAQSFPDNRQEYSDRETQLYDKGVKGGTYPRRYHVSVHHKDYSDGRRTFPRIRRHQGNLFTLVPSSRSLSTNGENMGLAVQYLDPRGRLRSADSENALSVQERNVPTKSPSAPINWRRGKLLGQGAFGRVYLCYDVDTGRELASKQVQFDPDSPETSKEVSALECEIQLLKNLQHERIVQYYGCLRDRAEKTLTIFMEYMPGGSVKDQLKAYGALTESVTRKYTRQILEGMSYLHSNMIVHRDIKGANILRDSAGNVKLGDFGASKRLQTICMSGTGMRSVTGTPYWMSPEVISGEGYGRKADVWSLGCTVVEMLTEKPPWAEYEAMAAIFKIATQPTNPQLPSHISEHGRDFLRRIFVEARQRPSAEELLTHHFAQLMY
Conditions: singlicate.
Excerpt: as §1

Assay [6] concerns the target 320 wild-type protein kinases (Homo sapiens, UniProt Q9H4A3). Conditions: kinase WNK1, singlicate.
Excerpt: as §1

In assay [7] the target is 320 wild-type protein kinases (Homo sapiens, UniProt Q9Y2K2). Conditions: kinase SIK3, singlicate.
Excerpt: as §1

Assay [8] deals with T3, 320 wild-type protein kinases (Homo sapiens, UniProt O15146).
T3 sequence (O15146 24-869): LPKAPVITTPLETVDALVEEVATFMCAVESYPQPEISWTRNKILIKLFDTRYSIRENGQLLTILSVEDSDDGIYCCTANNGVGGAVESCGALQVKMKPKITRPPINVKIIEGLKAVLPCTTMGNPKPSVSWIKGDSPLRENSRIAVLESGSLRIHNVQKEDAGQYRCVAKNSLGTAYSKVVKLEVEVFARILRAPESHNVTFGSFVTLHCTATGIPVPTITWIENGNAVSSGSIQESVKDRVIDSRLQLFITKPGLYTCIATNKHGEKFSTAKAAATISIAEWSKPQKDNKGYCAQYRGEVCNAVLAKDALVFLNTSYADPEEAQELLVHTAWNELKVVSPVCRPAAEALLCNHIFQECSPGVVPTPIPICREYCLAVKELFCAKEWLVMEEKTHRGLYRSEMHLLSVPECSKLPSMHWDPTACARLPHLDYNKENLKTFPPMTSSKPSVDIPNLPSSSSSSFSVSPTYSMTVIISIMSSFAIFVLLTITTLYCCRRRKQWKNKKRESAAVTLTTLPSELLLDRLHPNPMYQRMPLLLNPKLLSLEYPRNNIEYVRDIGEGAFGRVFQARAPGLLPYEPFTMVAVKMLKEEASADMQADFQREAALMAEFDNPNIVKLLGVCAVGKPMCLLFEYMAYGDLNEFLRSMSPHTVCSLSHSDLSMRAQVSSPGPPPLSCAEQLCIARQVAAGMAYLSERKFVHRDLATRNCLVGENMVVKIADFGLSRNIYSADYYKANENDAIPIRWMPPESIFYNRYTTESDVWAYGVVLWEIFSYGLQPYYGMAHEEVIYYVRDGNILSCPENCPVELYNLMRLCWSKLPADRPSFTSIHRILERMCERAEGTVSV
Conditions: MUSK, singlicate.
Excerpt: as §1

Assay [9] concerns the target 320 wild-type protein kinases (Homo sapiens, UniProt Q14289). Conditions: kinase PYK2, singlicate.
Excerpt: as §1

Read-outs that look alike come from different tables or passages of the source.

Chain of 320 wild-type protein kinases (Homo sapiens, UniProt Q9Y2K2) (Q9Y2K2 whole entry): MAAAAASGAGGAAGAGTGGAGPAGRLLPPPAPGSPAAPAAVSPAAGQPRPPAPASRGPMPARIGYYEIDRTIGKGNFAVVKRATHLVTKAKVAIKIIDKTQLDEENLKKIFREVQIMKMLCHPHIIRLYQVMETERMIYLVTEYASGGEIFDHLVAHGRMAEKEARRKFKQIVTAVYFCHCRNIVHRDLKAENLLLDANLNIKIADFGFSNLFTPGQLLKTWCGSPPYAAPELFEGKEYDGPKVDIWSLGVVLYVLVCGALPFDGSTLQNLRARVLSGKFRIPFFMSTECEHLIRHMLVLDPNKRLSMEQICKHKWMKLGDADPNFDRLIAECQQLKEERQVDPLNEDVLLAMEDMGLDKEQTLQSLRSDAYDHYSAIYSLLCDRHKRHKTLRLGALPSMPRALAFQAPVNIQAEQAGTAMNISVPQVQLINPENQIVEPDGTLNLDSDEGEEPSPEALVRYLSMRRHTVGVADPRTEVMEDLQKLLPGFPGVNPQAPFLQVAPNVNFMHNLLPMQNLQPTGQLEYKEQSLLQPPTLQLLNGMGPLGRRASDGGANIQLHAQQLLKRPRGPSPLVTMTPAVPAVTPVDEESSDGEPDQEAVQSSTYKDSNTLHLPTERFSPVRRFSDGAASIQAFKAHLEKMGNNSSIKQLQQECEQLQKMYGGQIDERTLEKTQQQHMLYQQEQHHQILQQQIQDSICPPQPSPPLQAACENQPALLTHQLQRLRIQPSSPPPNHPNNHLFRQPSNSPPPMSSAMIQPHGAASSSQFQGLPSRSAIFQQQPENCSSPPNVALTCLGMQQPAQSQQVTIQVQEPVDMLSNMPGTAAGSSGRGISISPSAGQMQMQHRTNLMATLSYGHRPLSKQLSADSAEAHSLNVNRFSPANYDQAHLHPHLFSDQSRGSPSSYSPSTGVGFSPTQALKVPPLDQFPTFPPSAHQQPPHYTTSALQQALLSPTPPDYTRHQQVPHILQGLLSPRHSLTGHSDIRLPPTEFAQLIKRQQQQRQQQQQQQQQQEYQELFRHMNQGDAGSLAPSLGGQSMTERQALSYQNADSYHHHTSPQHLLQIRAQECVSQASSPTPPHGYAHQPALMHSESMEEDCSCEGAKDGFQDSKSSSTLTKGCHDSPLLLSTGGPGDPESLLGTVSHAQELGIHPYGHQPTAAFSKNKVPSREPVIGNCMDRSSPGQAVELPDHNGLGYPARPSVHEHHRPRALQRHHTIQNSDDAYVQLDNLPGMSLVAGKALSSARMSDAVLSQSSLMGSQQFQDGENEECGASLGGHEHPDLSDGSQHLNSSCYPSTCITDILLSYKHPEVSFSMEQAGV
Chain of 320 wild-type protein kinases (Homo sapiens, UniProt Q14289) (Q14289 whole entry): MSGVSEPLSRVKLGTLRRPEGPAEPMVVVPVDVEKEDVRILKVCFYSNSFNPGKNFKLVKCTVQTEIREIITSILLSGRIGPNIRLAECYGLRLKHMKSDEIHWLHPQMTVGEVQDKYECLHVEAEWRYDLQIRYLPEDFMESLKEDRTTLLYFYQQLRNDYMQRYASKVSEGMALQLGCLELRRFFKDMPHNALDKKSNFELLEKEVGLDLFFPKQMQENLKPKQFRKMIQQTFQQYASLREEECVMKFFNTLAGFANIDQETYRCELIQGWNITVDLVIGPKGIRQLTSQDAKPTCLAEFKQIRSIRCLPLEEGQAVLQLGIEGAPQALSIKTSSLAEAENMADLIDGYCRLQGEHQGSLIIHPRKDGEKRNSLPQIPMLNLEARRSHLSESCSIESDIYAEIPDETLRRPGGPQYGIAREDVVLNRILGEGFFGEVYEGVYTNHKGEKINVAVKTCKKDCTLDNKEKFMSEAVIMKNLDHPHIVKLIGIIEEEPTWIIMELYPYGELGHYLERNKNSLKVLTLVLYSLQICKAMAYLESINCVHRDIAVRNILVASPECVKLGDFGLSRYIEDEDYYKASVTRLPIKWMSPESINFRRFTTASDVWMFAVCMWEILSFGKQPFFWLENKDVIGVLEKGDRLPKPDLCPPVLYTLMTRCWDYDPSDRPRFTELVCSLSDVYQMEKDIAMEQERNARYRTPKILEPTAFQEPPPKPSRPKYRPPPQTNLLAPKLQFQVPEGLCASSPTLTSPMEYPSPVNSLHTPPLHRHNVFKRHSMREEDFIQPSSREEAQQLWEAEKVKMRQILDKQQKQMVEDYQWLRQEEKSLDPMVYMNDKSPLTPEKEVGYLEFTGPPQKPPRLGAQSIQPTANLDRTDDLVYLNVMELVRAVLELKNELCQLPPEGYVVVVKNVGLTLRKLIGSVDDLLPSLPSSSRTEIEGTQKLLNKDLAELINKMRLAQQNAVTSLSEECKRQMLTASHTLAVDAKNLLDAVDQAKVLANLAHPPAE
Chain of 320 wild-type protein kinases (Homo sapiens, UniProt Q9H4A3) (Q9H4A3 whole entry): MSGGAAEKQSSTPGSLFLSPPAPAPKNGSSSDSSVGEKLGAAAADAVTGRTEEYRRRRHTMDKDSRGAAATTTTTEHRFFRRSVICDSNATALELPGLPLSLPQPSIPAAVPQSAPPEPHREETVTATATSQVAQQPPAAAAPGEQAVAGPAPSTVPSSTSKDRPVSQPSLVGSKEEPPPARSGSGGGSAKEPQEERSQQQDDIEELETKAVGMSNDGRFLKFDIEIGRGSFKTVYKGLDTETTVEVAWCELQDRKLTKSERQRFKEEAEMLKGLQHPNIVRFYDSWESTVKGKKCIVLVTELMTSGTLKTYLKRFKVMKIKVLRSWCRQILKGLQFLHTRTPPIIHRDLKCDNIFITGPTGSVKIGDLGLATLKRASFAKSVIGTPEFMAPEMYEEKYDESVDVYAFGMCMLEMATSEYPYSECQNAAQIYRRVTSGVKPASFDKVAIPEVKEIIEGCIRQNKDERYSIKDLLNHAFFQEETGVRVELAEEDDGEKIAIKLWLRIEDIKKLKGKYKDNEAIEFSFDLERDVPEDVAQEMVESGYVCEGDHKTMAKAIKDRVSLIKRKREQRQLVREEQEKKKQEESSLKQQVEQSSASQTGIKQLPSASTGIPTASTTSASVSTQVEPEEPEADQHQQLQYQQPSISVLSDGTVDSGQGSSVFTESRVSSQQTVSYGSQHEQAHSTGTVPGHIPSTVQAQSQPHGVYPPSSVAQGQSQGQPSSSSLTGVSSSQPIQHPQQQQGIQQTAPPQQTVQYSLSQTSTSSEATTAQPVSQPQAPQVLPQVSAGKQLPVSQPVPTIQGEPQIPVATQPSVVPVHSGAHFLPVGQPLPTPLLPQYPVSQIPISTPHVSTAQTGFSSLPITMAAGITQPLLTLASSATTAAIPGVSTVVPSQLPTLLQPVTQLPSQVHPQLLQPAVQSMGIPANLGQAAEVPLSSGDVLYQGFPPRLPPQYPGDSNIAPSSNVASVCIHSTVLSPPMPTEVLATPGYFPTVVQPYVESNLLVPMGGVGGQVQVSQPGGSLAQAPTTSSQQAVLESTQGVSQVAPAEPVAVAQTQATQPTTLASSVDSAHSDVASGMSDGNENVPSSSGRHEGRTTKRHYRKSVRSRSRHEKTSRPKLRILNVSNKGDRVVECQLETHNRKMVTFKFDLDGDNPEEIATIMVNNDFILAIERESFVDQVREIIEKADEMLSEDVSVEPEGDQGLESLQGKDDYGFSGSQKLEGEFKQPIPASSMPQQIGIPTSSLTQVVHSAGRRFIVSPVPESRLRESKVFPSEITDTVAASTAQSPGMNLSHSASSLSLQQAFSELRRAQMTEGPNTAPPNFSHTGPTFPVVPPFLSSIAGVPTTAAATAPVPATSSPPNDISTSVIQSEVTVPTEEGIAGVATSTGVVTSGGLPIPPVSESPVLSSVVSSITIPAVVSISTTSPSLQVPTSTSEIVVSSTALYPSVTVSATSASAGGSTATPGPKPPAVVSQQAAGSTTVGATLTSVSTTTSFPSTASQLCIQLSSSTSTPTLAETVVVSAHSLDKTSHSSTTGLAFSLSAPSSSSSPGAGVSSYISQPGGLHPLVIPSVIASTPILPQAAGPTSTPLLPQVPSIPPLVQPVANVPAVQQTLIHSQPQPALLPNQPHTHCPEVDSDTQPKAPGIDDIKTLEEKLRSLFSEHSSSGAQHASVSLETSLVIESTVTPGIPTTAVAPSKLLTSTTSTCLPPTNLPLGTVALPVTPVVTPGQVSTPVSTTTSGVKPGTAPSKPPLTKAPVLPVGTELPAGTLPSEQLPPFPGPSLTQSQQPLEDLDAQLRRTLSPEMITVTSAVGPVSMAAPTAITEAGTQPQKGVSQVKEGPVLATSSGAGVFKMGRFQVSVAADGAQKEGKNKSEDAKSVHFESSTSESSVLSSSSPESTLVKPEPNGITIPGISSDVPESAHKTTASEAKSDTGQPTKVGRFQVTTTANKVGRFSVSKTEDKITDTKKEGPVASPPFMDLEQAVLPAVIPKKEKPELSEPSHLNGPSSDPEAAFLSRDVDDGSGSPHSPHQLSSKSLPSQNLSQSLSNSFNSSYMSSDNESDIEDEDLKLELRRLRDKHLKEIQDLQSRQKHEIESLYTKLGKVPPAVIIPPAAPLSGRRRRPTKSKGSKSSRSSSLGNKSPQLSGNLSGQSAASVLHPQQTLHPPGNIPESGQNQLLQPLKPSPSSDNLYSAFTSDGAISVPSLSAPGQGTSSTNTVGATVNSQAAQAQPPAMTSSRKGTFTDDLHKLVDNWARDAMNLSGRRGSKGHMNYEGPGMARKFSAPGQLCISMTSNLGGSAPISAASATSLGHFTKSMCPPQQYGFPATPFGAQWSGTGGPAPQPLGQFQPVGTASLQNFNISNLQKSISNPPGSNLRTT

Take `C#Cc1cc(Nc2ncnc3cc(OC)c(OC)cc23)ccc1Cl` [Compound 45]: the Residual activity in assay [1] (1.0E-06 M) was 101 % of control; in assay [1] (1.0E-07 M), 108 % of control; in [2] (1.0E-06 M), 113 % of control; in assay [2] (1.0E-07 M), 114 % of control; in assay [5] (MEKK3, 1.0E-06 M), 117 % of control; in [5] (MEKK3, 1.0E-07 M) it was 115 % of control. In addition, the values for the Residual activity in assay [8] (1.0E-06 M) and in assay [8] (1.0E-07 M) were 87 % of control and 94 % of control, respectively. For the same molecule, the “Residual activity, RAF1 Y340D/Y341D (untagged)” value in [3] (assay conc. 1.0E-06 M) was 88 % of control; in [3] (assay conc. 1.0E-07 M), 83 % of control. The “Residual activity, SYK aa1-635” value in assay [4] (assay conc. 1.0E-06 M) is recorded as 104 % of control; in [4] (assay conc. 1.0E-07 M) it was 105 % of control. The “Residual activity, WNK1” value is given as 95 % of control in [6] (assay conc. 1.0E-06 M) and 93 % of control in [6] (assay conc. 1.0E-07 M). Further, the figures for the “Residual activity, SIK3” value in assay [7] (assay conc. 1.0E-06 M) and in [7] (assay conc. 1.0E-07 M) were 58 % of control and 83 % of control, respectively. For the same molecule, the “Residual activity, PYK2” value in assay [9] (assay conc. 1.0E-06 M) is on record as 92 % of control; in assay [9] (assay conc. 1.0E-07 M), 95 % of control.
On to `C#Cc1cc(Nc2ncnc3cc(I)ccc23)ccc1Cl` [Compound 41], for which the Residual activity is 94 % of control in assay [1] (1.0E-06 M); 108 % of control in [1] (1.0E-07 M); 141 % of control in assay [2] (1.0E-06 M); 140 % of control in assay [2] (1.0E-07 M); 107 % of control in assay [5] (MEKK3, 1.0E-06 M); 106 % of control in [5] (MEKK3, 1.0E-07 M). The Residual activity in assay [8] (1.0E-06 M) was 96 % of control; in [8] (1.0E-07 M) it was 94 % of control. Besides, the “Residual activity, RAF1 Y340D/Y341D (untagged)” value is recorded as 99 % of control in [3] (assay conc. 1.0E-06 M) and 95 % of control in assay [3] (assay conc. 1.0E-07 M). Besides, the “Residual activity, SYK aa1-635” value in assay [4] (assay conc. 1.0E-06 M) and in assay [4] (assay conc. 1.0E-07 M) was 94 % of control throughout. For the same molecule, the “Residual activity, WNK1” value in [6] (assay conc. 1.0E-06 M) is 70 % of control; in assay [6] (assay conc. 1.0E-07 M) it was 84 % of control. For the same molecule, the results for the “Residual activity, SIK3” value in [7] (assay conc. 1.0E-06 M) and in assay [7] (assay conc. 1.0E-07 M) were 72 % of control and 77 % of control, respectively. Besides, the “Residual activity, PYK2” value is reported as 97 % of control in [9] (assay conc. 1.0E-06 M) and 103 % of control in assay [9] (assay conc. 1.0E-07 M).
